Laboratory results as given in ChEMBL document CHEMBL1201862, “PubChem BioAssay data set” (2004).
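Method: 48-hour compound exposure of cells in 96-well plates, five concentrations, linear interpolation of endpoints. At the GI50, growth is halved.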 Calls of active or inactive are those of the source. Cut-off read from the data, not from the text of the source: active = GI50 up to about 1.1 µM and inactive = higher.

What was measured:
Experiment in all cases: DTP human tumour cell line panel, 48 h
[1] = test system: 786-0
[2] = test system: A549
[3] = test system: ACHN
[4] = test system: BT-549
[5] = test system: CAKI-1
[6] = test system: CCRF-CEM
[7] = test system: HCT-116
[8] = test system: IGROV-1
[9] = test system: K562
[10] = test system: LOX IMVI
[11] = test system: M14
[12] = test system: MOLT-4
[13] = test system: NCI-H23
[14] = test system: OVCAR-4
[15] = test system: RXF 393
[16] = test system: SNB-19
[17] = test system: SR
[18] = test system: T47D
[19] = test system: TK-10
[20] = test system: UACC-62

SMILES | GI50 [1] | GI50 [2] | GI50 [3] | GI50 [4] | GI50 [5] | GI50 [6] | GI50 [7] | GI50 [8] | GI50 [9] | GI50 [10] | GI50 [11] | GI50 [12] | GI50 [13] | GI50 [14] | GI50 [15] | GI50 [16] | GI50 [17] | GI50 [18] | GI50 [19] | GI50 [20]
COc1cc(Cl)c(CC(=O)c2c[nH]c3ccccc23)cc1OC | 13.7 µM (inactive) | > 100 µM (inactive) | 8.55 µM (inactive) | 28.2 µM (inactive) | > 36.1 µM (inactive) | > 34.6 µM (inactive) | 98.6 µM (inactive) | 32.4 µM (inactive) | > 49.2 µM (inactive) | > 100 µM (inactive) | > 100 µM (inactive) | > 100 µM (inactive) | > 42.5 µM (inactive) | > 100 µM (inactive) | 12.3 µM (inactive) | 13.4 µM (inactive) | > 100 µM (inactive) | > 28.5 µM (inactive) | 16.9 µM (inactive) | > 100 µM (inactive)
O=[N+]([O-])c1ccc(CSCc2ccc(Cl)cc2)cc1 | > 100 µM (inactive) | > 100 µM (inactive) | > 100 µM (inactive) | > 100 µM (inactive) | > 100 µM (inactive) | 14.5 µM (inactive) | 92.3 µM (inactive) | > 100 µM (inactive) | > 100 µM (inactive) | > 100 µM (inactive) | > 100 µM (inactive) | 17.5 µM (inactive) | > 100 µM (inactive) | > 100 µM (inactive) | > 100 µM (inactive) | > 100 µM (inactive) | 23.8 µM (inactive) | 74.3 µM (inactive) | > 100 µM (inactive) | > 100 µM (inactive)
Cc1cc(=O)oc2cc(OS(C)(=O)=O)ccc12 | > 100 µM (inactive) | > 100 µM (inactive) | > 100 µM (inactive) | > 100 µM (inactive) | > 100 µM (inactive) | > 100 µM (inactive) | > 100 µM (inactive) | > 100 µM (inactive) | > 100 µM (inactive) | > 100 µM (inactive) | > 100 µM (inactive) |  | > 100 µM (inactive) | > 100 µM (inactive) | > 100 µM (inactive) | > 100 µM (inactive) | > 100 µM (inactive) | > 100 µM (inactive) | > 100 µM (inactive) | > 100 µM (inactive)
Cc1c(C(=O)c2ccccc2)[n+]([O-])c2cc(Cl)c(Cl)cc2[n+]1[O-] | 15.8 µM (inactive) | 13 µM (inactive) | 14.3 µM (inactive) | 16.9 µM (inactive) | 3.03 µM (inactive) | 19.3 µM (inactive) | 13.5 µM (inactive) | 1.97 µM (inactive) | 4.01 µM (inactive) | 3.72 µM (inactive) | 2.87 µM (inactive) | 2.73 µM (inactive) | 2.39 µM (inactive) | 4.11 µM (inactive) | 6.08 µM (inactive) | 16.6 µM (inactive) | 1.54 µM (inactive) | 0.889 µM (active) | 11.5 µM (inactive) | 11.4 µM (inactive)
CC1CCC2C(C)C3C(CC4C5CC=C6CC(OC7OC(CO)C(O)C(OC8OC(CO)C(O)C(O)C8O)C7OC7OC(C)C(O)C(O)C7O)CCC6(C)C5CCC43C)N2C1 (stereo not drawn) | 9.42 µM (inactive) | 7.05 µM (inactive) | 8.89 µM (inactive) | 16.5 µM (inactive) | 11.3 µM (inactive) | 9.66 µM (inactive) | 11.1 µM (inactive) | 12.4 µM (inactive) | 16 µM (inactive) | 15 µM (inactive) | 4.67 µM (inactive) | 28.6 µM (inactive) | 14.7 µM (inactive) | 8.13 µM (inactive) | 10.2 µM (inactive) | 10.5 µM (inactive) | 15.1 µM (inactive) | 19.3 µM (inactive) | 16.3 µM (inactive) | 13.8 µM (inactive)
O=c1c2ncn(COCCCl)c2n(-c2ccccc2)c(=S)n1-c1ccccc1 | > 100 µM (inactive) | > 100 µM (inactive) | > 100 µM (inactive) | > 100 µM (inactive) | > 100 µM (inactive) | > 100 µM (inactive) | > 100 µM (inactive) | > 100 µM (inactive) | > 100 µM (inactive) | > 100 µM (inactive) | > 100 µM (inactive) | > 100 µM (inactive) | > 100 µM (inactive) | > 100 µM (inactive) | > 100 µM (inactive) | > 100 µM (inactive) | > 100 µM (inactive) | > 100 µM (inactive) | > 100 µM (inactive) | > 100 µM (inactive)
COC1=C(C)C(=O)c2c(c(COC(N)=O)c3n2CC(OC(C)=O)C3OC(C)=O)C1=O (stereo not drawn) | < 0.0116 µM (active) | 0.136 µM (active) | < 0.01 µM (active) | 0.296 µM (active) | < 0.01 µM (active) | 0.153 µM (active) | 0.0204 µM (active) | 0.0785 µM (active) | 0.0191 µM (active) | 0.0294 µM (active) | 0.0977 µM (active) | 0.242 µM (active) | 0.0436 µM (active) | 0.279 µM (active) | 0.152 µM (active) | 0.433 µM (active) | < 0.01 µM (active) | 0.757 µM (active) | 0.388 µM (active) | 0.0857 µM (active)
c1ccc(COC2NCCN2Cc2ccccc2)cc1 (stereo not drawn) | > 100 µM (inactive) | > 100 µM (inactive) | > 100 µM (inactive) | > 100 µM (inactive) | > 100 µM (inactive) | > 100 µM (inactive) | > 100 µM (inactive) | > 100 µM (inactive) | > 100 µM (inactive) | > 100 µM (inactive) | > 100 µM (inactive) | > 100 µM (inactive) | > 100 µM (inactive) | > 100 µM (inactive) | > 100 µM (inactive) | > 100 µM (inactive) | > 100 µM (inactive) | > 100 µM (inactive) | > 100 µM (inactive) | 63.2 µM (inactive)
C[n+]1c2ccccc2n2c3ccccc3c(NCCCN3CCOCC3)c(C#N)c21 | 1.04 µM (active) | 3.33 µM (inactive) | 2.61 µM (inactive) | 12 µM (inactive) | 2.45 µM (inactive) | 8.17 µM (inactive) | 0.703 µM (active) |  | 1.73 µM (inactive) | 0.839 µM (active) | 2.4 µM (inactive) | 0.498 µM (active) | 1.29 µM (inactive) | 1.56 µM (inactive) | 1.37 µM (inactive) | 3.08 µM (inactive) | 2.81 µM (inactive) | 2.32 µM (inactive) | 1.58 µM (inactive) | 3.03 µM (inactive)
CN1C=Cc2nccc3cc4c(c1c23)OCO4 | 1.61 µM (inactive) | 2.81 µM (inactive) | 1.56 µM (inactive) | 1.87 µM (inactive) | 0.986 µM (active) | 1.39 µM (inactive) | 1.5 µM (inactive) | > 20.7 µM (inactive) | 1.89 µM (inactive) | 6.25 µM (inactive) | 3.56 µM (inactive) | 0.647 µM (active) | 2.1 µM (inactive) | 5.22 µM (inactive) | 0.879 µM (active) | 1.87 µM (inactive) | 0.495 µM (active) | 6.82 µM (inactive) | 3.64 µM (inactive) | 1.36 µM (inactive)
CC(NC(=O)C1(N)CCCC1)C(=O)O (stereo not drawn) | > 100 µM (inactive) | > 100 µM (inactive) | > 100 µM (inactive) | > 100 µM (inactive) | > 100 µM (inactive) | > 100 µM (inactive) | > 100 µM (inactive) | > 100 µM (inactive) | > 100 µM (inactive) | > 100 µM (inactive) | > 100 µM (inactive) | > 100 µM (inactive) | > 100 µM (inactive) | > 100 µM (inactive) | > 100 µM (inactive) | > 100 µM (inactive) | > 100 µM (inactive) | > 100 µM (inactive) | > 100 µM (inactive) | > 100 µM (inactive)
CC(C)C(OC(=O)c1ccc(NCC2=CC(=O)C=CC2=O)cc1)C(C)C | 10.4 µM (inactive) | 25.2 µM (inactive) | 9.1 µM (inactive) | 3.52 µM (inactive) | 1.4 µM (inactive) | 0.474 µM (active) | 11.7 µM (inactive) | 1.81 µM (inactive) | 3.66 µM (inactive) | 5.15 µM (inactive) | 6.52 µM (inactive) | 2.01 µM (inactive) | 5.05 µM (inactive) | 3.64 µM (inactive) | 1.82 µM (inactive) | 18.3 µM (inactive) | 3.23 µM (inactive) | 2.1 µM (inactive) | 4.25 µM (inactive) | 6.44 µM (inactive)
CC[C@@H](/C=C\CCC(=O)C[C@H](O)CCC=C(C)C)O[Si](C(C)C)(C(C)C)C(C)C | > 100 µM (inactive) | 73.3 µM (inactive) | > 100 µM (inactive) | > 100 µM (inactive) | > 100 µM (inactive) | 80.4 µM (inactive) | > 100 µM (inactive) | > 100 µM (inactive) | 54.5 µM (inactive) | 90.8 µM (inactive) | > 100 µM (inactive) | > 100 µM (inactive) | > 100 µM (inactive) | > 100 µM (inactive) | 83.9 µM (inactive) | > 100 µM (inactive) | 39.4 µM (inactive) | 55.5 µM (inactive) | > 100 µM (inactive) | > 100 µM (inactive)
N=C(N)N/N=C/c1c(-c2cc([N+](=O)[O-])c(Cl)cc2Cl)nc2n1CCS2 | 32.4 µM (inactive) | 32.7 µM (inactive) | 22.4 µM (inactive) | 3.18 µM (inactive) | 40 µM (inactive) | 2.84 µM (inactive) | 5.01 µM (inactive) | 16.4 µM (inactive) | 2.88 µM (inactive) | 6.35 µM (inactive) | 6.04 µM (inactive) | 6.79 µM (inactive) | 5.33 µM (inactive) | 10.4 µM (inactive) | 41.5 µM (inactive) | 3.87 µM (inactive) | 0.951 µM (active) | 2.47 µM (inactive) | 15.5 µM (inactive) | 25.5 µM (inactive)
